Consider seven molecules from US20240252652A1, “PROTEINS HAVING UNNATURAL AMINO ACIDS AND METHODS OF USE” (The Regents of the University of California, priority 2021, published 2024).

A short description of test [1]: Cross-linking of azido-GD3 by SFY incorporated Siglec-7v in vitro (Western blot). The class given is biochemical. The conditions noted are these: 60 μM Siglec-7v(127SFY), 2 mM azido-GD3. The procedure: FIGS. 17A-17D provide a comparative study between NHSF pretreated Siglec-7v (Siglec-7v-SF) and Siglec-7v(127SFY). […] Siglec-7v(127SFY) or Siglec-7v-SF was incubated with azido-GD3 or azido-lac followed with Western blot detection. The azido group was click reacted with alkyne-biotin for Western blot detection of GD3/lac. […] Cells were treated with protein, washed, stained with a fluorescently labeled antibody specific for the His×6 tag appended at the C-terminus of Siglec-7v, and quantified with flow cytometry. […] Pre-stained BT-20 cells were incubated with 12 μM Siglec-7v-SF or Siglec-7v(127SFY) for 2 h. Cells were then washed and incubated with NK-92 cells for 4 h. Cells were stained with propidium iodide and NK cytotoxicity was evaluated by flow cytometry. Control group: no protein treatment. The line and error bar represent mean±SEM; n=3 independent batches of Siglec-7v proteins. *** p<0.001; NS, not significant, multiple t test.
We then determined if SFY could enable Siglec-7v to cross-link the bound glycan ligand. Inspired by NHSF-mediated cross-linking of azido-GD3 through Lys on Siglec-7v protein, we incorporated SFY into individual Lys sites of Siglec-7v, including sites 20, 24, 75, 104, 127, 131, and 135. […] Cross-linking of azido-GD3 was detected for Siglec-7v(104SFY) and Siglec-7v(127SFY). […]
A general note: Immunoblotting shows a protein as a band on a membrane.

In another test the target is T1, Siglec-7v with azido-GD3 (Homo sapiens, UniProt Q9Y286, C41S).
T1 construct: made in house; host or cells: E. coli BL21(DE3)
T1 sequence (Q9Y286 with tags, fused parts or gaps C41S): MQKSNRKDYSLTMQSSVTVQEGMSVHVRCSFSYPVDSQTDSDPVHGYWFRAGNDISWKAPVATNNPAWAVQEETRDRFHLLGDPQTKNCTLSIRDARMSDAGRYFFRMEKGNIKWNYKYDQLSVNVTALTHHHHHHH
Briefly: Small molecule mediated Siglec-7v cross-linking in vitro (Western blot). The class given is biochemical. The conditions noted are these: for cross-linking of Siglec-7v with azido-GD3 (biotin band slightly above Siglec-7v): 60 μM Siglec-7v, 2 mM azido-GD3, 0.3 mM cross-linker, room temperature, UV for NHQM, HoQM. The procedure: We then investigated if the various function groups synthesized onto the cross-linkers (FIG. 1B) could achieve protein-glycan cross-linking using Siglec-7v and azido-GD3 as the model system. Siglec-7v (60 μM) was incubated with 2 mM azido-GD3 for 1 h at room temperature, followed by the addition of different cross-linkers to the solution. For samples treated with cross-linker NHQM or HoQM, UV light was applied to activate the cross-linker. Alkyne-biotin was subsequently clicked with azido-GD3 in the samples, and the biotin signal was detected with Western blot using streptavidin-HRP (FIG. 1E). […] (Ref. 20). The results here indicate that NHSF can be applied to cross-link protein-glycan interactions via the sulfonyl fluoride group.
To test if small molecule cross-linker could cross-link Siglec-7v with azido-GD3 and azido-lac, 60 μM Siglec-7v was incubated with 2 mM azido-GD3 or azido-lac in PBS buffer, pH 7.4 at room temperature for 1 hr. The solution was treated with or without 0.3 mM NHSF or NHBr or NHFS or NHQM or HoQM at room temperature for 1 hr, respectively. The NHQM or HoQM was then illuminated with or without UV for 15 mins at wavelength 365 nm. After that, 200 μM alkyne-biotin, 0.05 mM CuSO4, 1 mM THPTA and 1 mM sodium ascorbate were added and the reaction mixture was incubated at room temperature in dark environment for 0.5 hours. Samples were then boiled at 95° C. for 5 mins and run Western blot against 6× His tag antibody or streptavidin-horseradish peroxidase (HRP).

Turning to `CC(=O)N[C@H]1[C@H]([C@H](O)[C@H](O)CO)O[C@@](O[C@H]2[C@@H](O)[C@@H](CO)O[C@@H](O[C@H]3[C@H](O)[C@@H](O)C(O)O[C@@H]3CO)[C@@H]2O)(C(=O)O)C[C@@H]1O` (stereo partly shown) [3′-sialyllactose], in test [1], the “effect of added ligand on crosslinking of siglec-7v(127SFY) with azido-GD3” value is listed as “did not reduce”. With `O=C(c1ccc(OCc2ccccc2[N+](=O)[O-])c(C(F)F)c1)N1CCN(C(=O)c2ccc(OCc3ccccc3[N+](=O)[O-])c(C(F)F)c2)CC1` [HoQM], the “cross-linking of Siglec-7v with azido-GD3 (biotin band slightly above Siglec-7v)” value at Siglec-7v with azido-GD3 was “not”.

For the molecule `O=C(Cc1ccc(OS(=O)(=O)F)cc1)ON1C(=O)CCC1=O` [NHFS, 2,5-dioxopyrrolidin-1-yl 2-(4-((fluorosulfonyl)oxy)-phenyl)acetate], on Siglec-7v with azido-GD3, the “cross-linking of Siglec-7v with azido-GD3 (biotin band slightly above Siglec-7v)” value is given as “not”. The same measure, in the same setting: the same measure for `O=C(ON1C(=O)CCC1=O)c1ccc(OCc2ccccc2[N+](=O)[O-])c(C(F)F)c1` [NHQM]: “not”.

Regarding `O=C(CCNC(=O)c1ccc(S(=O)(=O)F)cc1)ON1C(=O)CC(S(=O)(=O)[O-])C1=O.[Na+]` (stereo not shown) [NHSF—C2, Sodium 1-((3-(4-(fluorosulfonyl)benzamido)propanoyl)oxy)-2,5-dioxopyrrolidine-3-sulfonate], the “cross-linking band intensity in comparison with NHSF” value on Siglec-7v with azido-GD3 (Siglec-7v with azido-GD3) is recorded as 1.5 fold. In the case of `O=C(CCCNC(=O)c1ccc(S(=O)(=O)F)cc1)ON1C(=O)CC(S(=O)(=O)[O-])C1=O.[Na+]` (stereo not shown) [NHSF—C3, Sodium 1-((4-(4-(fluorosulfonyl)benzamido)butanoyl)oxy)-2,5-dioxopyrrolidine-3-sulfonate], the “cross-linking efficiency on further increase of the linker length” value on Siglec-7v with azido-GD3 (Siglec-7v with azido-GD3) is “lowered”.

As to `O=C(CCCCCCCNC(=O)c1ccc(S(=O)(=O)F)cc1)ON1C(=O)CC(S(=O)(=O)[O-])C1=O.[Na+]` (stereo not shown) [NHSF—C7, sodium 1-((8-(4-(fluorosulfonyl)benzamido)octanoyl)oxy)-2,5-dioxopyrrolidine-3-sulfonate], the “cross-linking efficiency on further increase of the linker length” value at Siglec-7v with azido-GD3 (Siglec-7v with azido-GD3) is reported as “lowered”.
